This is an account of results in patent US20230158176A1, “NEAR-INFRARED FLUORESCENT SMALL-MOLECULE PROBE, SYNTHESIS METHOD AND APPLICATION THEREOF” (Linyi University, priority 2021, published 2023).

Series [1] deals with murine mammary carcinoma cells (4T1 cells). Kind of series: In vitro evaluation of cytotoxicity by CCK-8. It counts as cell-based. Particulars: 10 μM to 60 μM, incubated 1 h. The procedure: Respective toxicity of the IR-780-F solution and the IR-780 solution with concentrations from 10 μM to 60 μM on murine mammary carcinoma cells (also referred to as 4T1 cells) is measured by cell counting kit-8 (CCK-8). Incubated 4T1 cells are collected and centrifuged to prepare cell suspensions, and a cell concentration is adjusted to 8×10^4 cells per milliliter. The 4T1 cells are transferred to 96-well plates, and 100 microliters (μL) 4T1 cells are added to each well, so that a density of the cells to be tested is about 8000 cells per well, and the number of the 96-well plates for experiment is two. The two 96-well plates inoculated with the cells to be tested are placed in an incubator at 37° C. for 12 h. One plate is incubated with the IR-780-F solutions with a concentration gradient from 10 μM to 60 μM for 1 h; the other plate is incubated with the IR-780 solutions with a concentration gradient from 10 μM to 60 μM for 1 h. After the end of incubation, CCK-8 reagent (a volume of 10 μL, a concentration of 5 mg/mL, i.e. 0.5% CCK-8 reagent) is immediately added to the each well and the two 96-well plates continue to incubate for 40 min. Finally, absorptivity and intensity of the each well are tested by an enzyme calibration, and cell viability of the control group is taken as 100%, and the cell viability of the test groups are taken as the percentage of the control group.

Series [2] is described as follows: In vitro photothermal efficiency under 808 nm laser radiation. Type of series: physicochemical. Particulars: for highest temperature of the solution: 2.0 W/cm^2, solutions 0.2-1.2 mg/mL in PBS. As to the method:
To evaluate in vitro thermogenesis of IR-780 solution and IR-780-F solution, 10 millimoles per litter (mM) IR-780-F solution dissolved in the dimethyl sulfoxide is used, and the IR-780-F solution is respectively diluted to the concentrations of 0.2 milligrams per milliliters (mg/mL), 0.4 mg/mL, 0.8 mg/mL, and 1.2 mg/mL with the phosphate buffered saline and these IR-780-F solutions and the phosphate buffered saline are evaluated. The IR-780 solution is prepared as above.
Temperature changes of the IR-780-F solutions and the phosphate buffered saline and temperature changes of the IR-780 solutions and the phosphate buffered saline are respectively recorded by using an infrared thermal imaging camera (a model of FLIR-E6). The phosphate buffered saline as a control group, 0.2 mg/mL of the IR-780-F solution and 0.2 mg/mL of the IR-780 solution, 0.4 mg/mL of the IR-780-F solution and 0.4 mg/mL of the IR-780 solution, 0.8 mg/mL of the IR-780-F solution and 0.8 mg/mL of the IR-780 solution, 1.2 mg/mL of the IR-780-F solution and 1.2 mg/mL of the IR-780 solution are all exposed to 808 nm laser radiation with a power density of 2.0 Watt per square centimeter (W/cm^2) to be measured and recorded the temperature changes.

Series [3] can be described thus: Molecular spectrum test (absorption and emission spectra). Type of series: physicochemical. The settings on record: for maximum emission wavelength: λex 740 nm. As to the method:
A certain mass of the IR-780-F sample is weighed and dissolved in dimethyl sulfoxide (DMSO) to obtain a solving solution, and the quantitative solving solution is added to 2-[4-(2-hydroxyethyl)-1-piperazinyl]-ethanesulfonic acid (HEPES, also referred to as C8H18N2O4S) buffer solution to form a solution with a concentration of 10.0 micromoles per liter […] (containing 10% dimethyl sulfoxide) and an absorption spectrum of the IR-780-F sample is measured. Ultraviolet absorption spectrum is obtained by Agilent Ultraviolet-Vis spectrophotometer with a scanning wavelength range from 500 nanometers (nm) to 900 nm at a sweep rate of 1002 nanometers per minute (nm/min). Furthermore, addition quantitative solving solution is respectively added to methanol, acetonitrile, phosphate buffered saline (PBS buffer solution), HEPES buffer solution, bovine serum and adult serum to form a solution with a concentration of 10.0 μM (containing 10% dimethyl sulfoxide) to test an emission spectrum of the IR-780-F sample. Hitachi F-4600 […] is used to obtain FT-IR emission spectrum, of the scanning wavelength is from 750 nm to 900nm, an excitation wavelength λex is 740 nm, an excitation slit width is 5 nm, and an emission slit width is 5 nm.

The test system of series [4] is 4T1 tumor-bearing nude mice. Briefly: In vivo NIR fluorescence imaging / distribution in tumor-bearing mice. Further details: species or system BALB/c Nude mice. The settings on record: 4 mg/kg via tail vein. The procedure: (§1) The incubated 4T1 cells are collected by centrifugation, rinsed three times with PBS buffer solution to prepare cell suspensions, which are used a cell counter to count cell number. The cell suspensions are respectively diluted to desired concentrations with the PBS buffer solution. The pretreated 4T1 cells (about 1×10^6 per 100 μL) are injected subcutaneously into right hind legs of BALB/c Nude mice and tumor model mice are obtained after about one week.
In order to determine an optimal time for in vivo photothermal treatment with the IR-780-F, tissue permeability and distribution of the IR-780-F in tumor-bearing mice are examined by means of a whole animal near infrared (NIR) imaging system. An injection of the IR-780-F (containing 12.4% dimethyl sulfoxide) is prepared with PBS buffer solution. When the tumors in the tumor-bearing mice grow to a certain volume, 4 milligrams per kilogram of the tumor-bearing mice (mg/kg) IR-780-F is injected into the tumor-bearing mice via tail vein. The anesthetized nude mice are placed into a in vivo imaging apparatus (also referred to as living imaging apparatus) and subjected to fluorescence imaging at 0 h, 2 h, 4 h, 8 h, 12 h, 24 h, 48 h, 72 h, 96 h and 120 h. […] The organs are placed in the living imaging apparatus to observe fluorescence distribution of each organ.

The test system of series [5] is 4T1 tumor-bearing nude mice. Briefly: Photothermal efficiency at tumor location in vivo. Set-up: species or system BALB/c Nude mice. The settings on record: IR-780-F+laser radiation group, intratumoral injection, laser 4 minutes. As to the method: as §1
The injection of the IR-780-F (containing 12.4% dimethyl sulfoxide) is prepared with PBS buffer solution for intratumoral injection. After 12 hours, the nude mice are anesthetized, imaged using a photothermal imager, and temperature changes are recorded. The tumor locations of the mice are irradiated with a laser for 4 minutes, and then the photothermal imaging is again performed on the corresponding tumor locations to record the corresponding temperature.

The test system of series [6] is 4T1 tumor-bearing nude mice. Briefly: Photothermal treatment effect in tumor-bearing mice. Type of series: in vivo, BALB/c Nude mice. The procedure:
as §1
After successful tumor loading, mice with an average tumor diameter of about 10×10 mm are randomly divided into four groups (5 mice in each group): (1) control group: intratumoral injection of 0.1 mL of saline; (2) laser group: intratumoral injection of 0.1 mL of saline followed by a laser radiation (a wavelength of 808 nm, 2.0 W/cm^2, 4 min); (3) IR-780-F group: intratumoral injection of 0.1 mL (corresponding to 80 micrograms abbreviated μg) of the IR-780-F solution without the laser radiation; (4) IR-780-F+laser group: intratumoral injection of 80 μg of the IR-780-F solution followed by the laser radiation (a wavelength of 808 mn, 2.0 W/cm^2, 4 min). The mice are anesthetized after administration of the medicine, and the tumor locations of the mice are placed under the laser radiation. When the laser irradiated the tumor locations of the mice, the temperature of the tumor locations under the laser radiation are simultaneously recorded when measured by the thermal infrared imager.

Each structure is given as a SMILES string.

Consider `CCCN1/C(=C/C=C2\CCCC(/C=C/C3=[N+](CCC)c4ccccc4C3(C)C)=C2Cl)C(C)(C)c2ccccc21.[I-]` [IR-780, reference compound], for which the “cell viability of the 4T1 cells” value in series [1] was “decreases with the increase of the concentrations”. For the same compound, the “highest temperature of the solution” value in series [2] amounted to 69.3 °C.
`CC1(C)C(/C=C/C2=C(Cl)C(=C/C=C3/N(CCC(F)(F)F)c4ccccc4C3(C)C)/CCC2)=[N+](CCC(F)(F)F)c2ccccc21` [IR-780-F]: the “Stoke shift value (difference between maximum emission wavelength and maximum absorption wavelength)” value in series [3] was 38 nm. Also, the maximum emission wavelength in series [3] (in FBS) worked out at 820 nm; in series [3] (in HAS), 818 nm; in series [3] (in HEPES) it was 804 nm; in series [3] (in MeCN) it was 816 nm; in series [3] (in MeOH) it was 814 nm. In addition, the maximum absorption wavelength in series [3] (in HEPES, 10.0 μM, 10% dimethyl sulfoxide) is listed as 773 nm. For the same compound, in series [4] (dissected five days later), the “fluorescence distribution in dissected organs and tumors” value was “mainly concentrated at the tumor location and there is weak fluorescence in the lungs”. In addition, the “distribution of near-infrared fluorescence in vivo” value in series [4] (imaging 0-120 h) is reported as “significant tumor targeting accumulation”. The “surface temperature of the tumor locations” value in series [5] is 52.9±0.2 °C. In addition, the “cell viability of the 4T1 cells” value in series [1] is “decreases with the increase of the concentrations”. Besides, the tumor size in series [6] (IR-780-F group: 80 μg intratumoral without laser radiation, 12th day) is 559±49 mm^3. The tumor growth result in series [6] (IR-780-F without laser, compared with laser alone and control PBS group, P>0.05) was “does not show a significant inhibition”; in series [6] (IR-780-F+laser radiation, P<0.01), “significantly inhibited”. The same compound displayed a mean tumor size in series [6] (IR-780-F+laser group: 80 μg intratumoral, 808 nm, 2.0 W/cm^2, 4 min, 12th day) of 94±11 mm^3. Also, in series [6] (IR-780-F+laser radiation group, sacrificed at the 12th day), the “tumor volumes of excised tumors” value is “significantly smaller than those in the other three groups”. Also, the “photothermal conversion effect compared with IR-780” value in series [2] is “better photothermal conversion effect than that of the IR-780”. In series [2], the “highest temperature of the solution” value came out at 69.3 °C.
